# Reference: ChEMBL document CHEMBL5113526, “Design, Synthesis, and Biological Evaluation of Androgen Receptor Degrading and Antagonizing Bifunctional Steroidal Analogs for the Treatment of Advanced Prostate Cancer” (J Med Chem, 2022)
# Key:
# LNCaP [1] = assay: Antiproliferative activity against human LNCAP cells assessed as reduction in cell viability at 10 uM measured after 6 days by CellTiterGlo assay relative to control; assay type: functional; conditions: Homo sapiens, LNCaP, time 6 day
# LNCaP [2] = assay: cells; conditions: Homo sapiens
# Description: Antiproliferative activity against human LNCAP cells assessed as reduction in cell viability measured after 6 days by CellTiter-Glo assay
# Androgen receptor [3] = molecular target: T1, Androgen receptor (Homo sapiens, UniProt P10275); assay: Antagonist activity at DHT-induced Androgen receptor transcriptional activity in human HEK293 cells measured after 24 hrs by Steady-Glo reagent based assay; assay type: cell-based
# T1 sequence (P10275 whole entry): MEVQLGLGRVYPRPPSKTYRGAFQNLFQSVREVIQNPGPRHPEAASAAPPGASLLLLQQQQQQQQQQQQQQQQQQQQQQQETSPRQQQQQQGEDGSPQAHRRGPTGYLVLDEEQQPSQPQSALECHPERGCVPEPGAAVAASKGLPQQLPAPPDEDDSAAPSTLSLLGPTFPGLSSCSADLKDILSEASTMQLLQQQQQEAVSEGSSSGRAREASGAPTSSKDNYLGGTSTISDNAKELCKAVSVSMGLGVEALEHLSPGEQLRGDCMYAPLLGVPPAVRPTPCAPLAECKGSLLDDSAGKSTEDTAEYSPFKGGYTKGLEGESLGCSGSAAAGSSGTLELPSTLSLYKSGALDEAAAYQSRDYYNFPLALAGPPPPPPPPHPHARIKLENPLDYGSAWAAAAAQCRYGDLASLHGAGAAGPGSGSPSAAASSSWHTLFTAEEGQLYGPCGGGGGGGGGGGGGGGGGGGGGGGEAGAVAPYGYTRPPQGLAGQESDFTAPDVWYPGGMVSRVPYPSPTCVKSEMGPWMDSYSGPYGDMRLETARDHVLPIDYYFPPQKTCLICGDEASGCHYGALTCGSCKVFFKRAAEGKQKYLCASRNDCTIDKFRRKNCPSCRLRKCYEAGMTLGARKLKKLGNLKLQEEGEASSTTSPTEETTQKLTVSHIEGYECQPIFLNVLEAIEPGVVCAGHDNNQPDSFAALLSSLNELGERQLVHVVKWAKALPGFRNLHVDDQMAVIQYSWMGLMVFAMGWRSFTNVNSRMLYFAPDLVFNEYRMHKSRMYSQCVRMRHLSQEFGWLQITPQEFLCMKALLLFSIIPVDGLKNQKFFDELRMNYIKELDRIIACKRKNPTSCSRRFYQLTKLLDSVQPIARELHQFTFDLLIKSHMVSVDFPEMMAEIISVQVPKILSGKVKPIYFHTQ
# [4] = Terminal half life in Sprague-Dawley rat at 10 mg/kg, po measured up to 24 hrs by LC-MS/MS analysis; assay type: ADME, organism-based; conditions: in vivo, read-out: beta t1/2 (converted)
# [5] = Tmax in Sprague-Dawley rat at 10 mg/kg, po measured up to 24 hrs by LC-MS/MS analysis; assay type: ADME, organism-based; conditions: in vivo
# [6] = AUC (0 to t) in Sprague-Dawley rat at 10 mg/kg, po measured up to 24 hrs by LC-MS/MS analysis; assay type: ADME, organism-based; set-up: time < 24 hrs, dose 10 mg/kg, route po; conditions: in vivo
# Androgen receptor [7] = molecular target: T1, Androgen receptor; assay: Induction of AR degradation in human LNCap cells incubated for 24 hrs by sandwich ELISA analysis; assay type: cell-based
# [8] = Cmax in Sprague-Dawley rat at 10 mg/kg, po measured up to 24 hrs by LC-MS/MS analysis; assay type: ADME, organism-based; set-up: dose 10 mg/kg, time < 24 hrs, route po; conditions: in vivo
# [9] = molecular target: T2, Steroid 17-alpha-hydroxylase/17,20 lyase (Homo sapiens, UniProt P05093); assay: Inhibition of human recombinant CYP17A1 incubated for 5 mins in presence of NADPH by LC-MS/MS analysis; assay type: ADME
# T2 sequence (P05093 whole entry): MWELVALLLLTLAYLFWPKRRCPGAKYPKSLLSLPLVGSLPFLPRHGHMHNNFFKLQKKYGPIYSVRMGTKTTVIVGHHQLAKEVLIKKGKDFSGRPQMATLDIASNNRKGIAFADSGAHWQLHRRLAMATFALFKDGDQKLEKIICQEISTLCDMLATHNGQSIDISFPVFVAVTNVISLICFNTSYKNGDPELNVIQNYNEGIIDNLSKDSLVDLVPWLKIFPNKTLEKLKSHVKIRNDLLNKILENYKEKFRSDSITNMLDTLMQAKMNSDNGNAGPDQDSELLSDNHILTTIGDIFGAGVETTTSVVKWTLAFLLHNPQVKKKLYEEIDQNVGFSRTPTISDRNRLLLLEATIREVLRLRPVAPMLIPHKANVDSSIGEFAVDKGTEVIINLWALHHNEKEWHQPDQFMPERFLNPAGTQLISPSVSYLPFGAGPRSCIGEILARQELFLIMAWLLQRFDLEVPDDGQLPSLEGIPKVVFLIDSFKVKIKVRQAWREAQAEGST
SMILES,IC50 (LNCaP [2]) [nM],inhibition at 10 µM (LNCaP [1]) [%],further results
Cc1cn(C2=CC[C@H]3[C@@H]4CC=C5C[C@@H](NC(=O)c6ccnnc6)CC[C@]5(C)[C@H]4CC[C@]23C)cn1,466,97,IC50 (Androgen receptor [3]): 244 nM; half-life [4]: 3.58 h; Tmax [5]: 4.67 h; AUC(0-t) at 24 h [6]: 5620 ng·h/mL; DC50 (Androgen receptor [7]): 2080 nM; Cmax [8]: 802 ng/mL; IC50 [9]: > 3000 nM
C[C@]12CC[C@H](O)CC1=CC[C@@H]1[C@@H]2CC[C@]2(C)C(n3cnc4ccccc43)=CC[C@@H]12 [GALETERONE],3550,110,IC50 [9]: 16 nM
Cn1cncc1S(=O)(=O)N[C@H]1CC[C@@]2(C)C(=CC[C@@H]3[C@@H]2CC[C@]2(C)C(n4cnc5ccccc54)=CC[C@@H]32)C1,7200,100,
COc1cncc(C2=CC[C@H]3[C@@H]4CC=C5C[C@@H](NC(=O)c6cccnc6)CC[C@]5(C)[C@H]4CC[C@]23C)c1,> 10000,,
C[C@]12CC[C@H](NC(=O)c3ccnnc3)CC1=CC[C@@H]1[C@@H]2CC[C@]2(C)C(n3ccnc3)=CC[C@@H]12,382,92.4,IC50 (Androgen receptor [3]): 981 nM; DC50 (Androgen receptor [7]): 2760 nM
C[C@]12CC[C@H](NS(=O)(=O)c3cccnc3)CC1=CC[C@@H]1[C@@H]2CC[C@]2(C)C(n3cnc4ccccc43)=CC[C@@H]12,1640,93.3,
C[C@]12CC[C@H](NC(=O)c3cccnc3)CC1=CC[C@@H]1[C@@H]2CC[C@]2(C)C(c3cncnc3)=CC[C@@H]12,> 10000,,
C[C@]12CC[C@H](O)C[C@@H]1[C@H](NS(C)(=O)=O)C[C@@H]1[C@@H]2CC[C@]2(C)C(c3cccnc3)=CC[C@@H]12,> 10000,,
C[C@]12CC[C@H](NC(=O)c3ccncc3)CC1=CC[C@@H]1[C@@H]2CC[C@]2(C)C(n3cnc4ccccc43)=CC[C@@H]12,763,104,IC50 (Androgen receptor [3]): 1550 nM; DC50 (Androgen receptor [7]): 3760 nM
C[C@]12CC[C@H](NC(=O)c3ccnnc3)CC1=CC[C@@H]1[C@@H]2CC[C@]2(C)C(c3cncnc3)=CC[C@@H]12,820,99.7,
C[C@]12CC[C@H](O)C[C@@H]1[C@H](Oc1ccncn1)C[C@@H]1[C@@H]2CC[C@]2(C)C(c3cccnc3)=CC[C@@H]12,3160,91.3,
C[C@]12CC[C@H](O)C[C@@H]1[C@H](NS(=O)(=O)c1cccnc1)C[C@@H]1[C@@H]2CC[C@]2(C)C(c3cccnc3)=CC[C@@H]12,5430,100,
C[C@]12CC[C@H](NCc3ccncc3)CC1=CC[C@@H]1[C@@H]2CC[C@]2(C)C(n3cnc4ccccc43)=CC[C@@H]12,2380,111,
CO/N=C1\C[C@@H]2[C@H](CC[C@]3(C)C(c4cccnc4)=CC[C@@H]23)[C@@]2(C)CC[C@H](O)C[C@H]12,8120,100,
C[C@]12CC[C@H](NC(=O)c3ccnnc3)CC1=CC[C@@H]1[C@@H]2CC[C@]2(C)C(n3cnc4ccccc43)=CC[C@@H]12,765,95.9,IC50 (Androgen receptor [3]): 1350 nM; DC50 (Androgen receptor [7]): 4780 nM
Cc1cn(C2=CC[C@H]3[C@@H]4CC=C5C[C@@H](NC(=O)c6cccnc6)CC[C@]5(C)[C@H]4CC[C@]23C)cn1,933,103,IC50 (Androgen receptor [3]): 1280 nM; DC50 (Androgen receptor [7]): 3580 nM

# More lines, in order of falling IC50 (LNCaP [2]), values ahead:
IC50 (LNCaP [2]) [nM],SMILES,inhibition at 10 µM (LNCaP [1]) [%],further results
2830,C[C@]12CC[C@H](O)C[C@@H]1[C@H](CO)C[C@@H]1[C@@H]2CC[C@]2(C)C(c3cccnc3)=CC[C@@H]12,88.5,
2710,C[C@]12CC[C@H](O)CC1=CC[C@@H]1[C@@H]2CC[C@]2(C)C(c3cccnc3)=CC[C@@H]12 [ABIRATERONE],84.7,IC50 [9]: 2 nM
2430,Cc1cncc(C2=CC[C@H]3[C@@H]4CC=C5C[C@@H](NC(=O)c6cccnc6)CC[C@]5(C)[C@H]4CC[C@]23C)c1,90.3,
2260,Cc1noc(C)c1S(=O)(=O)N[C@H]1CC[C@@]2(C)C(=CC[C@@H]3[C@@H]2CC[C@]2(C)C(n4cnc5ccccc54)=CC[C@@H]32)C1,100,
2250,C[C@]12CC[C@H](NC(=O)c3cccnn3)CC1=CC[C@@H]1[C@@H]2CC[C@]2(C)C(n3cnc4ccccc43)=CC[C@@H]12,,
2230,C[C@]12CC[C@H](NC(=O)c3cocn3)CC1=CC[C@@H]1[C@@H]2CC[C@]2(C)C(n3cnc4ccccc43)=CC[C@@H]12,95.2,
2210,C[C@]12CC[C@H](NC(=O)c3ccnnc3)CC1=CC[C@@H]1[C@@H]2CC[C@]2(C)C(c3cncc(F)c3)=CC[C@@H]12,100,
1790,C[C@]12CC[C@H](O)C[C@@H]1[C@@H](OS(C)(=O)=O)C[C@@H]1[C@@H]2CC[C@]2(C)C(c3cccnc3)=CC[C@@H]12,100,
1670,C[C@]12CC[C@H](NC(=O)c3cccnc3)CC1=CC[C@@H]1[C@@H]2CC[C@]2(C)C(n3cncn3)=CC[C@@H]12,105,
1600,C[C@]12CC[C@H](NC(=O)c3cccnc3)CC1=CC[C@@H]1[C@@H]2CC[C@]2(C)C(n3cnc4ccccc43)=CC[C@@H]12,109,
1420,C[C@]12CC[C@H](NC(=O)c3ccncn3)CC1=CC[C@@H]1[C@@H]2CC[C@]2(C)C(n3cnc4ccccc43)=CC[C@@H]12,101,
1390,C[C@]12CC[C@H](NC(=O)c3cccnc3)CC1=CC[C@@H]1[C@@H]2CC[C@]2(C)C(n3ccnn3)=CC[C@@H]12,76.2,
1010,C[C@]12CC[C@H](NC(=O)c3ccncc3)CC1=CC[C@@H]1[C@@H]2CC[C@]2(C)C(c3cncc(F)c3)=CC[C@@H]12,104,
978,C[C@]12CC[C@H](NC(=O)c3cscn3)CC1=CC[C@@H]1[C@@H]2CC[C@]2(C)C(n3cnc4ccccc43)=CC[C@@H]12,63.2,
743,Cc1cncc(C2=CC[C@H]3[C@@H]4CC=C5C[C@@H](NC(=O)c6ccnnc6)CC[C@]5(C)[C@H]4CC[C@]23C)c1,78.2,IC50 (Androgen receptor [3]): 1640 nM; DC50 (Androgen receptor [7]): 11800 nM
672,C[C@]12CC[C@H](NC(=O)c3ccnnc3)CC1=CC[C@@H]1[C@@H]2CC[C@]2(C)C(n3ccnn3)=CC[C@@H]12,,IC50 (Androgen receptor [3]): 9140 nM; DC50 (Androgen receptor [7]): 4360 nM; IC50 [9]: > 3000 nM
646,COc1cncc(C2=CC[C@H]3[C@@H]4CC=C5C[C@@H](NC(=O)c6ccnnc6)CC[C@]5(C)[C@H]4CC[C@]23C)c1,73.7,IC50 (Androgen receptor [3]): 914 nM; DC50 (Androgen receptor [7]): 38400 nM
238,C[C@]12CC[C@H](NC(=O)c3ccnnc3)CC1=CC[C@@H]1[C@@H]2CC[C@]2(C)C(n3cncn3)=CC[C@@H]12,64.4,IC50 [9]: > 3000 nM
